Columns and labels:
Type in all cases: biochemical
Conditions in all cases: 10 nM JAK enzyme, 800 nM Abl peptide, room temperature 75 min
JAK1 = JAK1 (Homo sapiens, UniProt P23458); assay: JAK assay (KINASE-GLO luminescent kinase assay), JAK1
Method: (§1) All compounds were initially prepared as 10 mM stocks in anhydrous dimethylsulfoxide (DMSO). A 20 μL aliquot of the 10 mM solutions was transferred to individual wells in column 1 of a 96-well polypropylene microtiter plate (Corning #3363) and diluted with DMSO to give a final compound concentration of 4 mM. Test compounds were then serially diluted 1:5 in DMSO for an 11-point concentration response and further diluted in the assay buffer bringing all compound concentrations to a final range of 100 μM to 10 pM in 2.5% DMSO. The assay was performed in white 96-well, flat-bottom, half-area, non-binding assay plate (Corning #3642) in assay buffer consisting of 20 mM HEPES (pH 7.5), 10 mM MgCl2*6H2O, 100 μM sodium orthovanadate, 0.05% CHAPS and 0.1% bovine serum albumin. A 10 μL aliquot of compound from each well of the intermediate dilution plate and 20 μL of a 2×JAK substrate/enzyme solution containing acceptor substrate (800 nM Abl peptide), JAK enzyme (10 nM JAK1, JAK2, JAK3, or TYK2), and 1,4-Dithiothreitol (DTT, 2 μM) were added to all wells. The reaction was initiated by the addition of 10 μL of 4× stock solution ATP (2 μM). Reactions were thoroughly mixed manually, covered and allowed to incubate at room temperature for 75 min. Protein kinase activity was quantitated using Promega's KINASE-GLO™ luminescent Kinase Assay Kit according to the manufacturer's directions. ATP concentrations remaining in Test wells following the termination of the enzymatic reaction were compared against control wells containing equivalent amounts of DMSO containing no inhibitor (CTRL). […] Percent of Control (POC) values were determined for each concentration of compound tested according to the equation:
(§2) [formula] • IC50 values were calculated using the following 4-parameter logistic curve-fitting algorithm:
(§3) [formula] • IC50 values were converted to Ki values using the Cheng-Prusoff Equation: […]

JAK2 = JAK2 (Homo sapiens, UniProt O60674); assay: JAK assay (KINASE-GLO luminescent kinase assay), JAK2
Method: as §1, §2, §3

JAK3 = molecular target: T1, JAK3 (Homo sapiens, UniProt P52333); assay: JAK assay (KINASE-GLO luminescent kinase assay), JAK3
T1 sequence (P52333 1-1124): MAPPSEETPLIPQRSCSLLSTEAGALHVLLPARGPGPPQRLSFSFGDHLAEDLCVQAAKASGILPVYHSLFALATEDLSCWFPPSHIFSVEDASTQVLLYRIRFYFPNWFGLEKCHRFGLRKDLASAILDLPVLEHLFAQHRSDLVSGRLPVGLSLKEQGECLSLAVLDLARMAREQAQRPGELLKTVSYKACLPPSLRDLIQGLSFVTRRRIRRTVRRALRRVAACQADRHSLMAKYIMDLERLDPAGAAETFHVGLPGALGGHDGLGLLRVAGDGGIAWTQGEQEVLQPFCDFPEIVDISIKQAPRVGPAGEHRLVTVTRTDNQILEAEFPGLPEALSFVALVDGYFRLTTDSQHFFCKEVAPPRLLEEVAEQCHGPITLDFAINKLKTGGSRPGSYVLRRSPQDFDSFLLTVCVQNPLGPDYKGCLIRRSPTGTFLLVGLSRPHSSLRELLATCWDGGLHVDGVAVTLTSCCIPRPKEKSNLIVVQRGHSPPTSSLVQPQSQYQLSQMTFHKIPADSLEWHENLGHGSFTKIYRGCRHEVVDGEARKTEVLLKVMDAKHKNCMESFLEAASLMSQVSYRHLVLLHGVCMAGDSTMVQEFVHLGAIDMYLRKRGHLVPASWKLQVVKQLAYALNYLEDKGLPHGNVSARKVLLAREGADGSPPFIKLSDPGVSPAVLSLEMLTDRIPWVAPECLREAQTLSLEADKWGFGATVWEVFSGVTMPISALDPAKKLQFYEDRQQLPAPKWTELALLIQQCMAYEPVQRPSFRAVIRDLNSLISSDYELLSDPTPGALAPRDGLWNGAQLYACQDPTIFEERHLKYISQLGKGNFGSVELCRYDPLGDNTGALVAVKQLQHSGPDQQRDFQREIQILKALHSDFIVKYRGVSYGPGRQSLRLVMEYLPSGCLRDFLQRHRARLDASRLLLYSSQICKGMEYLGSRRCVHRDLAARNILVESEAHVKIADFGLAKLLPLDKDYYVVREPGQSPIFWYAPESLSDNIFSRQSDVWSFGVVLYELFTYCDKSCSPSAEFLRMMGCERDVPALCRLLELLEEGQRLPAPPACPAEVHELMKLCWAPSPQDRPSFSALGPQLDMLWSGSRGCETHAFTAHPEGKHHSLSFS
Method: as §1, §2, §3

TYK2 = TYK2 (Homo sapiens, UniProt P29597); assay: JAK assay (KINASE-GLO luminescent kinase assay), TYK2
Method: as §1, with “A 20 μL aliquot of the 10 mM solutions was transferred to individual wells in column 1 of a 96-well polypropylene microtiter plate (Corning #3363) and diluted with DMSO to give a final compound concentration of 4 mM.” left out
as §2, §3

Chain of JAK1 (P23458 whole entry): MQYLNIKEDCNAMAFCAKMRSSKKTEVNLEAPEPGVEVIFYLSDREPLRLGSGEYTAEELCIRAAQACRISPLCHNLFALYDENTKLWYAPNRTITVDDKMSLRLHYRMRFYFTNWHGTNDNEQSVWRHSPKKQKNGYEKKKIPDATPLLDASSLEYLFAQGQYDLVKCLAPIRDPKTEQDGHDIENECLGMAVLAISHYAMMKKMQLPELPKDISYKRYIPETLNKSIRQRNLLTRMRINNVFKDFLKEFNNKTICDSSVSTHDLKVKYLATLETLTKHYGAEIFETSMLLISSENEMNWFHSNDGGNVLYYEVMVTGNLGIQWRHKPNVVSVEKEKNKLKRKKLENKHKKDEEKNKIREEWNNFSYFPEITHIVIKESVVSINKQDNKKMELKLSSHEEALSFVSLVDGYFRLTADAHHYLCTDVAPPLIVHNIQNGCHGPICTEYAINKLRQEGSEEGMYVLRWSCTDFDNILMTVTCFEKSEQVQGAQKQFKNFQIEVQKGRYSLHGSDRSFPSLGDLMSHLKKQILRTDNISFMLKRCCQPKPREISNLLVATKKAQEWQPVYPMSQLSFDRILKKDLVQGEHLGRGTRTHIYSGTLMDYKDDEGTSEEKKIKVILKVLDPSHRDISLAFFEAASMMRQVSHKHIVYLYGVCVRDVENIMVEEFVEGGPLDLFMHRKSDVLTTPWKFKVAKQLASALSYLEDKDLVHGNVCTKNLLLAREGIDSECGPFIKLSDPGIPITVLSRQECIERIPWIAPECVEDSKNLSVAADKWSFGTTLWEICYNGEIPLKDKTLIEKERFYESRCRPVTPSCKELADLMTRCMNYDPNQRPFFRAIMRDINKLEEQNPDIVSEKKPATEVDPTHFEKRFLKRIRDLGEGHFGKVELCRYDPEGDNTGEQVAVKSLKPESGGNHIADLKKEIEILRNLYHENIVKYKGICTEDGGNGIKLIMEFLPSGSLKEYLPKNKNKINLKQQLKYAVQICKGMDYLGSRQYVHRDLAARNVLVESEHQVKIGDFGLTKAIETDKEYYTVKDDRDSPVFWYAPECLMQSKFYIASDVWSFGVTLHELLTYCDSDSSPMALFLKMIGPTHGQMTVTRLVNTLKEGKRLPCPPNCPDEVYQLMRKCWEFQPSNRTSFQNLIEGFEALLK
Chain of TYK2 (P29597 whole entry): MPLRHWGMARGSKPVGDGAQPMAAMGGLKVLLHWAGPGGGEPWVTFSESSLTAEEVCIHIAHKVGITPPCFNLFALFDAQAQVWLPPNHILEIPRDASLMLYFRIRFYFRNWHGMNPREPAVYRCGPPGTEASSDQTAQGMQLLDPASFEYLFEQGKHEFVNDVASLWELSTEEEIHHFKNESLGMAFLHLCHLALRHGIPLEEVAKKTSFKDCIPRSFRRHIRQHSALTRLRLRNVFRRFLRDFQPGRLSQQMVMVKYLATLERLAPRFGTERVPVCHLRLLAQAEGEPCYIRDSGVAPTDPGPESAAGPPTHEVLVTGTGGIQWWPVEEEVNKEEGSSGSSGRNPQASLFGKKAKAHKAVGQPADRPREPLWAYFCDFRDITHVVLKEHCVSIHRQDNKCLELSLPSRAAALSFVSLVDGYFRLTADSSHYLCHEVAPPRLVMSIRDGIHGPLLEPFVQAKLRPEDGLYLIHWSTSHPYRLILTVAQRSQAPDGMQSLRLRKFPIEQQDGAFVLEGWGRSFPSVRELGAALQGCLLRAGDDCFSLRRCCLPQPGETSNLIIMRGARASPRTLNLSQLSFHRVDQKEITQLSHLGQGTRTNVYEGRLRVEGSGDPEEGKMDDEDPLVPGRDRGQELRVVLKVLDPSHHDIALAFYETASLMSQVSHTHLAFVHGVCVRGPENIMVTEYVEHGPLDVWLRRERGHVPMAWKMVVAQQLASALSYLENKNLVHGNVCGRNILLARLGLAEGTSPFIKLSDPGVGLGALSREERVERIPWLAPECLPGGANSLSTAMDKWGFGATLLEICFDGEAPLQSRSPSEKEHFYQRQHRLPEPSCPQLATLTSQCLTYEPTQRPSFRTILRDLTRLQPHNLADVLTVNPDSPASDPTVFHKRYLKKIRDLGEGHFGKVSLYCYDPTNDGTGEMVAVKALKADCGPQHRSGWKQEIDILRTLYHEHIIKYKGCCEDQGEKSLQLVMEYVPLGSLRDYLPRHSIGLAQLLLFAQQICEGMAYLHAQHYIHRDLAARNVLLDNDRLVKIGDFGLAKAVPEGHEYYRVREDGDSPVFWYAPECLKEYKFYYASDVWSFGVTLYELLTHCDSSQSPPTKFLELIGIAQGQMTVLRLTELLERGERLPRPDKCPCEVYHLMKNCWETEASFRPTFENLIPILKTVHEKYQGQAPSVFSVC
Chain of JAK2 (O60674 whole entry): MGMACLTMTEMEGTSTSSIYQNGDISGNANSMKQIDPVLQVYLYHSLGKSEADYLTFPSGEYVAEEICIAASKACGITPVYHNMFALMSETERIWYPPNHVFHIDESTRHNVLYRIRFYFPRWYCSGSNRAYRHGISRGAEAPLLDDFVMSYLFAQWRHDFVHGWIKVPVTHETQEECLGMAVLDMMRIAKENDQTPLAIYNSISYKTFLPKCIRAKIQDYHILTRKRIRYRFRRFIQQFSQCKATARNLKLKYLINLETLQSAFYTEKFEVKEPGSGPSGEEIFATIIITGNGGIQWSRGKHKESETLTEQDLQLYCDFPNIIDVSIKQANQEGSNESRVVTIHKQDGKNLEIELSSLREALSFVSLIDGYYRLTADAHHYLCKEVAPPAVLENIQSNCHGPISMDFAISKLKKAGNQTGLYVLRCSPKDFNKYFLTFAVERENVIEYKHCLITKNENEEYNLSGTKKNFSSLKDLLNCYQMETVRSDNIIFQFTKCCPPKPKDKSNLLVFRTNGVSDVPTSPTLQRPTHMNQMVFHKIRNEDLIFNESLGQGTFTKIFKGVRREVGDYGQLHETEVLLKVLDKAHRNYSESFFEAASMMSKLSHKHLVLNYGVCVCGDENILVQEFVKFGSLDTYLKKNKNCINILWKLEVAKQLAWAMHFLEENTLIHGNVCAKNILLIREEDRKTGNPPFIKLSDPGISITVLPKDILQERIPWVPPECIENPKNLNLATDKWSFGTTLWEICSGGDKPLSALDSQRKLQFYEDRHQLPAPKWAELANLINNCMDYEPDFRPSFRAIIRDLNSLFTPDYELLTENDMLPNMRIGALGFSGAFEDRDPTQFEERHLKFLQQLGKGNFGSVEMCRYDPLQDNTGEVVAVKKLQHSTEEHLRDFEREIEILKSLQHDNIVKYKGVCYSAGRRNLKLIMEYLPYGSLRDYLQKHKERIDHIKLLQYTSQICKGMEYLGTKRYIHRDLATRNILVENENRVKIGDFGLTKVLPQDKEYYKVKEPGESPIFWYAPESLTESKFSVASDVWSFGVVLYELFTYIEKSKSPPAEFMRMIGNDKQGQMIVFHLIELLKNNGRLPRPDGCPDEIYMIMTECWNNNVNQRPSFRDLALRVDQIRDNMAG

SMILES	IC50 (JAK1) [nM]	IC50 (JAK2) [nM]	IC50 (JAK3) [nM]	IC50 (TYK2) [nM]
Cc1cnc(Nc2ccc(N3CCN(C)CC3)cc2)nc1-c1cnn(CC2(F)CC2)c1 [CN1CCN(CC1)C2═CC═C(NC3═NC(═C(C]	< 100	< 10	< 10	< 10
CN1CCN(c2ccc(Nc3ncc(Cl)c(-c4cnn(CC5(C#N)CC5)c4)n3)cn2)CC1 [CN1CCN(CC1)C2═NC═C(NC3═NC(═C]	< 100000	< 1000	< 100000	< 100000
Cc1cnc(Nc2ccc(CN3CCN(C)CC3)cc2)nc1-c1cnn(CC2(CF)CC2)c1 [CN1CCN(CC1)CC2═CC═C(NC3═NC]	< 1000	< 10	< 100	< 100
Cc1cnc(Nc2cccc(CN3CCN(C)CC3)c2)nc1-c1cnn(CC2(CF)CC2)c1 [CN1CCN(CC1)CC2═CC═CC(═C2)NC3═NC(═C]	< 1000	< 10	< 100	< 1000
Cc1cnc(Nc2cc(CN3CCN(C)CC3)ns2)nc1-c1cnn(CC2(CF)CC2)c1 [CN1CCN(CC1)CC2═NSC(═C2)NC3═NC]	< 1000	< 10	< 100	< 100
Cc1cnc(Nc2cc(COC(=O)CCN3CCN(C)CC3)ns2)nc1-c1cnn(CC2(CF)CC2)c1 [CN1CCN(CC1)CCC(═O)OCC2═NSC]	< 100	< 10	< 10	< 10
Cc1cnc(Nc2ccc3c(c2)OCCN3C)nc1-c1cnn(CC2(CF)CC2)c1 [CN1CCOC2═CC(═CC═C12)NC3═NC(═C]	< 100	< 10	< 100	< 100
Cc1cc(Nc2ncc(Cl)c(-c3cnn(CC4(N(C)C(=O)OC(C)(C)C)CC4)c3)n2)sn1 [CN(C(═O)OC(C)(C)C)C1(CC1)C[N]2C═C]	< 1000	< 100	< 100	< 1000
Cc1cnc(Nc2ccc(N3CC(N(C)C)C3)cc2)nc1-c1cnn(CC2(CF)CC2)c1 [CN(C)C1CN(C1)C2═CC═C(NC3═NC]	< 100	< 10	< 10	< 100
Cc1cnc(Nc2cccc(C(=O)N(C)C)c2)nc1-c1cnn(CC2(CF)CC2)c1 [CN(C)C(═O)C1═CC(═CC═C1)NC2═NC]	< 100	< 10	< 100	< 100
Cc1cnc(Nc2ccc(C(=O)N(C)C)cc2)nc1-c1cnn(CC2(CF)CC2)c1 [CN(C)C(═O)C1═CC═C(NC2═NC(═C]	< 100	< 10	< 100	< 100
Cc1cc(Nc2ncc(C)c(-c3cnn(CC4(CN(C)C)CC4)c3)n2)sn1 [CN(C)CC1(CC1)C[N]2C═C(C═N2)C3═C]	< 100	< 10	< 100	< 100
Cc1cnc(Nc2ccnc(CN(C)C)c2)nc1-c1cnn(CC2(CF)CCC2)c1 [CN(C)CC1═CC(═CC═N1)NC2═NC(═C]	< 1000	< 10	< 100	< 100
Cc1cnc(Nc2cc(CN(C)C)ns2)nc1-c1cnn(CC2(CF)CC2)c1 [CN(C)CC1═NSC(═C1)NC2═NC(═C]	< 100	< 10	< 100	< 10
Cc1cnc(Nc2cccc(CNC(=O)CN(C)C)c2)nc1-c1cnn(CC2(CF)CC2)c1 [CN(C)CC(═O)NCC1═CC═CC(═C1)NC2═NC]	< 100	< 10	< 10	< 100
Cc1cnc(Nc2ccc(CCN(C)C)cc2)nc1-c1cnn(CC2(CF)CC2)c1 [CN(C)CCC1═CC═C(NC2═NC(═C]	< 1000	< 10	< 100	< 100
Cc1cnc(Nc2ccc(CNC(=O)CCN(C)C)cc2)nc1-c1cnn(CC2(CF)CC2)c1 [CN(C)CCC(═O)NCC1═CC═C(NC2═NC(═C]	< 100	< 10	< 100	< 100
Cc1cnc(Nc2cc(CNC(=O)CCN(C)C)ns2)nc1-c1cnn(CC2(CF)CC2)c1 [CN(C)CCC(═O)NCC1═NSC(═C1)NC2═NC]	< 10	< 10	< 10	< 10
Cc1cnc(Nc2cc(COC(=O)CCN(C)C)ns2)nc1-c1cnn(CC2(CF)CC2)c1 [CN(C)CCC(═O)OCC1═NSC(═C1)NC2═NC]	< 100	< 10	< 10	< 10
Cc1cnc(Nc2ccc(C(=O)NCCN(C)C)cc2)nc1-c1cnn(CC2(CF)CC2)c1 [CN(C)CCNC(═O)C1═CC═C(NC2═NC]	< 100	< 10	< 100	< 10
Cc1cnc(Nc2ccnc(OCCN(C)C)c2)nc1-c1cnn(CC2(CC#N)CC2)c1 [CN(C)CCOC1═CC(═CC═N1)NC2═NC(═C]	< 100	< 10	< 100	< 100
CNC1(Cn2cc(-c3nc(Nc4cc(C)ns4)ncc3Cl)cn2)CC1 [CNC1(CC1)C[N]2C═C(C═N2)C3═C]	< 100	< 10	< 10	< 100
CNC(=O)c1ccc(Nc2ncc(C)c(-c3cnn(CC4(CF)CC4)c3)n2)cc1 [CNC(═O)C1═CC═C(NC2═NC(═C]	< 10	< 10	< 10	< 10
CNC(=O)c1cccc(Nc2ncc(Cl)c(-c3cnn(CC4(NC)CC4)c3)n2)c1 [CNC(═O)C1═CC═CC(═C1)NC2═NC]	< 1000	< 10	< 100	< 1000
CNCc1cc(Nc2ncc(C)c(-c3cnn(CC4(CF)CC4)c3)n2)sn1 [CNCC1═NSC(═C1)NC2═NC(═C]	< 100	< 10	< 100	< 100
COC1(c2ccc(Nc3ncc(C)c(-c4cnn(CC5(CF)CC5)c4)n3)cc2)COC1 [COC1(COC1)C2═CC═C(NC3═NC(═C]	1880	< 100	< 1000	< 1000
